Reference: publication PMC5880808, “A lever-like transduction pathway for long-distance chemical- and mechano-gating of the mechanosensitive Piezo1 channel” (Nature Communications, 2018)
Converted amounts (≈) assume the structure as drawn.

Experiments:
[1] = target: T1, mPiezo1 L1342A/L1345A mutant (Mus musculus, UniProt E2JF22, L1342A/L1345A); assay: Patch clamp (chemical-induced and stretch-induced currents), L1342A/L1345A mutant; format: cell-based; details: Piezo1-KO-HEK cells for chemical-induced currents
T1 construct: The full-length mPiezo1 has 2547 amino acids in each monomer; expressed in transfected cells
T1 sequence (E2JF22 whole entry L1342A/L1345A): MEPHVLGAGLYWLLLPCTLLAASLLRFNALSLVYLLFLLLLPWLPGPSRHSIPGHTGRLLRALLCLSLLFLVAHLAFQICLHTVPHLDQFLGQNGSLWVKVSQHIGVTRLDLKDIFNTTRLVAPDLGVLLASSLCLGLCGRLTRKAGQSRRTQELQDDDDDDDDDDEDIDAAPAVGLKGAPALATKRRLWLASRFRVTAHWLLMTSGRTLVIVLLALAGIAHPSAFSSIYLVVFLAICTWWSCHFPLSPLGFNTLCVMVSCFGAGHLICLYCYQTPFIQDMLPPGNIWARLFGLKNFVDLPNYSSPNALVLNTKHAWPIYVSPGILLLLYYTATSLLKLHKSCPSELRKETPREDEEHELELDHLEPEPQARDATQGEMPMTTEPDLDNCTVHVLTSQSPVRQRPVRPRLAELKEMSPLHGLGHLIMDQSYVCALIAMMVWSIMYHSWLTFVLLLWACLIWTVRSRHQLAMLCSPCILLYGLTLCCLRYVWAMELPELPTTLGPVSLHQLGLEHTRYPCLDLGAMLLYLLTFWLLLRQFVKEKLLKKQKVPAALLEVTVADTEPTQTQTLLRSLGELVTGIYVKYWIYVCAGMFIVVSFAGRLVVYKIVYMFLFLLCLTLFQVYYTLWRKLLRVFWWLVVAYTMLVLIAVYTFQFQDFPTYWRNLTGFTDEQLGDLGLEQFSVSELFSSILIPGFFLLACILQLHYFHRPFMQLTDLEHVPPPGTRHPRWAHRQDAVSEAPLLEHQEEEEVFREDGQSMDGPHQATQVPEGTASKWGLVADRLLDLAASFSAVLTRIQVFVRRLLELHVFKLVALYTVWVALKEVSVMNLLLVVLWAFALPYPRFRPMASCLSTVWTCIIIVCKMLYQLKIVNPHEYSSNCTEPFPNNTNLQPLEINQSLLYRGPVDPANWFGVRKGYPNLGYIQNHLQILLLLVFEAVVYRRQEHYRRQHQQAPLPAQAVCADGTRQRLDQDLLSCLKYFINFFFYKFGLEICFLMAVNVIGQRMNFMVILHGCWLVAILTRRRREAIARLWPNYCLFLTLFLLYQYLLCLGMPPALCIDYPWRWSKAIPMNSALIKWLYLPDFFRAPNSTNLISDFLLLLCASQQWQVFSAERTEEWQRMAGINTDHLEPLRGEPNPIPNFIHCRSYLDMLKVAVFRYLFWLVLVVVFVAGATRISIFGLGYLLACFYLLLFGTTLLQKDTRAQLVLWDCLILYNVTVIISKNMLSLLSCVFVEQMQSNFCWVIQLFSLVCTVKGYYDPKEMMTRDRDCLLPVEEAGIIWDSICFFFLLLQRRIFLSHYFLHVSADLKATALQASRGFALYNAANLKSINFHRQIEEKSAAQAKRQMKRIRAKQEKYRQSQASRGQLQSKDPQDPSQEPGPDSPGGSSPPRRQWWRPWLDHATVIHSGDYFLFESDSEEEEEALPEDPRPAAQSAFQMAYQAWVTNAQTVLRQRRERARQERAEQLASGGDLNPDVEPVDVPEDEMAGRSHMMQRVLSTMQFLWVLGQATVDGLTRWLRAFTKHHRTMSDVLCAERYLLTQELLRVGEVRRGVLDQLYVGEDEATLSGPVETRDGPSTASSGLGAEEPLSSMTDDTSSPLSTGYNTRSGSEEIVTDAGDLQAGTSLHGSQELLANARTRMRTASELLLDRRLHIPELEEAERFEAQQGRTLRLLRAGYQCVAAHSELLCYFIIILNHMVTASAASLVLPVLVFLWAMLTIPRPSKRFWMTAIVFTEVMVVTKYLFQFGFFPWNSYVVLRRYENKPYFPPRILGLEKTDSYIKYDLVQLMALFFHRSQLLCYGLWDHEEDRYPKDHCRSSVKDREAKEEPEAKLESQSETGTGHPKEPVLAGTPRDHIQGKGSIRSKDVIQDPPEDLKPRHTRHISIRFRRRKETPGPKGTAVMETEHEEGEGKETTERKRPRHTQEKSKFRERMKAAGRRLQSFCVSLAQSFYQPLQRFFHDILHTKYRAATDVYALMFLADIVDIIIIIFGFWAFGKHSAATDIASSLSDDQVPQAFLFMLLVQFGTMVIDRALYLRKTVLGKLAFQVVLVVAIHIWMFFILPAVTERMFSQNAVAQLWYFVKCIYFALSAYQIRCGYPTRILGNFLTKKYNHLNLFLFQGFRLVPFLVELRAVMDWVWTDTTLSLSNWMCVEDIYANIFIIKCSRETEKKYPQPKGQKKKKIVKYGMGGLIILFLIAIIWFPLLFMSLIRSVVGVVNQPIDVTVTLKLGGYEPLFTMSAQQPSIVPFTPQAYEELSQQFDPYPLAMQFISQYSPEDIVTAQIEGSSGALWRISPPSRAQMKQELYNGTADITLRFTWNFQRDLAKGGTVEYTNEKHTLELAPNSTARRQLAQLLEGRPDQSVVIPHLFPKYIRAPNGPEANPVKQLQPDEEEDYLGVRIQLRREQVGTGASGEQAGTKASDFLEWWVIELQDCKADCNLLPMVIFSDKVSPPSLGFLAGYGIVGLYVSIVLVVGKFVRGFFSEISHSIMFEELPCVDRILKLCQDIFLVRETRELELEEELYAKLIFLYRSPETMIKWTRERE
Experimental: (§1) Protocols for HEK293T cell culture, transient transfection, and patch-clamp experiments with an Axopatch 200B amplifier (Axon Instruments) or HEKA EPC10 were essentially similar to how previously described[6],[8]. […] The extracellular solution was composed of (in mM) 133 NaCl, 3 KCl, 2.5 CaCl2, 1 MgCl2, 10 HEPES (pH 7.3 with NaOH), and 10 glucose. All experiments were carried out at room temperature. Currents were sampled at 20 kHz, filtered at 2 kHz using the Clampex 10.4 software (Axon Instruments) or Patchmaster software. Leak currents before mechanical stimulations were subtracted offline from the current traces.
Stock solutions of Jedi1 (100 mM), Jedi2 (100 mM), and Yoda1 (30 mM) were solubilized in DMSO and diluted to the desired final concentrations as indicated in the figure legends using external or internal solutions. […] In other conditions, the compounds were directly added to the recording chamber or pipette solution, and the currents were recorded within 10 min. […]
(§2) Stretch-activated currents were recorded in the cell-attached patch-clamp configuration as previously described. […] Stretch-activated channels were recorded at a holding potential of −80 mV with pressure steps from 0 to −100 mm Hg (−10 mm Hg increments), and 4–11 recording traces were averaged per cell for analysis. […]

[2] = test system: mPiezo1 loop deletion mutants ΔL15-16 (657-677) and ΔL19-20 (870–921); assay: FLIPR GCAMP6s Ca2+ dose response, loop deletion mutants; format: cell-based, mouse; details: ΔL15-16 and ΔL19-20, FLIPR
Experimental: HEK293T cells were grown in Dulbecco’s modified Eagle medium containing 4.5 mg/ml glucose, 10% fetal bovine serum, and 1% penicillin/streptomycin. Cells were seeded in 50 μg/ml poly-D-lysine-coated 96-well plates (3 × 10^4 cells/well) and allowed to grow for about 18 h, and then co-transfected with a total of 250 ng cDNA containing Piezo1 or Piezo2 and GCaMP6s using Lipofectamine 2000 (Invitrogen, Life Technology). Two days after transfection the cells were washed with buffer containing 1× Hanks’ balanced salt solution (HBSS; 1.3 mM Ca^2+) and 10 mM HEPES (pH 7.2). The 96-well plates were then transferred to the FLIPR Tetra (Molecular Device) for monitoring the GCAMP6s fluorescence before and after addition of the compounds that were prepared in separate compound plates. For the initial screening, we screened about 3000 compounds derived from either the chemical library collected in Dr. Yu Rao’s lab, which is composed of different classes of heterocycles, including various drug scaffold or the Maybridge Ro3 Diversity Fragment Library purchased from Maybridge (Cambridge, UK), which consists of 2500 fragment compounds with a molecular weight below 350 and high rule of three compliance. Each compound was tested at a final concentration of 200 μM. Approximately 20 positive hits were selected for further testing in Piezo1-, Piezo2-, or vector-transfected cells. […]

[3] = test system: mPiezo1 loop deletion mutants ΔL15-16 (657-677) and ΔL19-20 (870–921); assay: Patch clamp (chemical-, poking- and stretching-induced currents), loop deletion mutants; format: cell-based, mouse
Experimental: as §1
Mechanical stimulation was delivered to the cell during the patch-clamp recording at an angle of 80° using a fire-polished glass pipette (tip diameter 3–4 μm) as previously described[5],[6]. […] A series of mechanical steps in 1 μm increments was applied every 20 s and currents were recorded at a holding potential of −70 mV. […] In the step-wise poking experiment, the patch was readily lost when the cell was broken at the end of the poking. […]
as §2

[4] = target: T2, mPiezo1 (Mus musculus, UniProt E2JF22); assay: Cell-attached patch with pressure clamp (stretch-activated currents); format: cell-based; details: absence of externally applied pressure, compound in pipette, vs DMSO
T2 construct: The full-length mPiezo1 has 2547 amino acids in each monomer; expressed in transfected cells; host or cells: HEK293T
T2 sequence (E2JF22 whole entry): as the sequence (E2JF22 whole entry L1342A/L1345A) above, with A1342L, A1345L counted along it

[5] = target: T2, mPiezo1; assay: as above; format: cell-based; details: for slope sensitivity (s): DMSO 14.1 ± 0.7; for P50 (the pressure required for half maximal activation): DMSO −27.0 ± 3.4
Experimental: Stretch-activated currents were recorded in the cell-attached patch-clamp configuration as previously described. Currents were sampled at 20 kHz and filtered at 2 kHz. Pipette was filled with a solution consisting of (in mM) 130 NaCl, 5 KCl, 10 HEPES, 1 CaCl2, 1 MgCl2, and 10 TEA-Cl (pH 7.3, balanced with NaOH). The external solution used to zero the membrane potential consisted of (in mM) 140 KCl, 10 HEPES, 1 MgCl2, and 10 glucose (pH 7.3 with KOH). All experiments were done at room temperature. Membrane patches were stimulated with negative pressure pulses for 500 ms through the recording electrode using a Patchmaster-controlled pressure clamp HSPC-1 device (ALA-scientific). Stretch-activated channels were recorded at a holding potential of −80 mV with pressure steps from 0 to −100 mm Hg (−10 mm Hg increments), and 4–11 recording traces were averaged per cell for analysis. Current-pressure relationships were fitted with a Boltzmann equation of the form: I(P) = [1 + exp (−(P – P50)/s)]^−^1, where I is the peak of stretch-activated current at a given pressure, P is the applied patch pressure (in mm Hg), P50 is the pressure value that evoked a current value which is 50% of Imax, and s reflects the current sensitivity to pressure.

[6] = target: T2, mPiezo1; assay: Whole-cell patch clamp, gap-free recording, compound puffed onto cells; format: cell-based; details: for compound-evoked whole-cell current: mPiezo1-mRuby2-expressing HEK293T, 1 mM Jedi1 or 30 μM Yoda1 puffed
Experimental: as §1
Stock solutions of Jedi1 (100 mM), Jedi2 (100 mM), and Yoda1 (30 mM) were solubilized in DMSO and diluted to the desired final concentrations as indicated in the figure legends using external or internal solutions. In Figs. 3a, 5b, and 6e, the compound solutions were puffed onto the cells using a multichannel perfusion system (MPS-2, World Precision Instruments) while continuously recording using a gap-free mode. In other conditions, the compounds were directly added to the recording chamber or pipette solution, and the currents were recorded within 10 min. In Figs. 5b and 6e, we used the Piezo1-KO-HEK cell line in which the endogenous Piezo1 gene is disrupted.

[7] = Water solubility; format: physicochemical; details: up to

Structure (SMILES) | inward currents, stretching-current relationship and P50 of the L1342A/L1345A mutant [1] | Ca2+ response of loop deletion mutants [2] | whole-cell currents or potentiation of poking- or stretching-induced currents in loop deletion mutants ([3]; ΔL15-16 and ΔL19-20 mutant-transfected cells) | fold change of NPo [4] | slope sensitivity (s) [5] | maximal stretching-induced Piezo1 current ([5]; −80 mV) | P50 (the pressure required for half maximal activation) ([5]; −80 mV) | onset and decay of evoked currents relative to Yoda1-induced currents ([6]; 1 mM Jedi1 vs 30 μM Yoda1) | compound-evoked whole-cell current [6] | solubility [7] | potentiation of stretching-induced currents of loop deletion mutants ([3]; ΔL15-16 and ΔL19-20, −80 mV) | shift of the pressure-current relationship ([5]; −80 mV)
Cc1oc(-c2ccccc2)cc1C(=O)O [Jedi1] | neither elicited inward currents | no dose-dependent Ca^2+ responses | failed to elicit | 4.7 ± 1.4 fold | 9.8 ± 1.9 mm Hg | Neither Jedi1 nor Yoda1 altered | −16.7 ± 2.2 mm Hg | more rapid onset and faster decay | evoked inward currents | ~2000 µM (≈ 404 µg/mL) | – | –
Clc1cccc(Cl)c1CSc1nnc(-c2cnccn2)s1 [Yoda1, reference compound] | neither elicited inward currents | – | – | 3.1 ± 1.3 fold | 8.0 ± 2.4 mm Hg | Neither Jedi1 nor Yoda1 altered | −15.1 ± 0.9 mm Hg | – | evoked inward currents | – | failed to potentiate | significant leftward shift
Cc1oc(-c2cccs2)cc1C(=O)O [Jedi2] | – | no dose-dependent Ca^2+ responses | – | – | – | – | – | – | – | ~2000 µM (≈ 416 µg/mL) | – | –
